Patent US10774071B2, “PD-1/PD-L1 inhibitors” (Gilead Sciences, Inc., priority 2018, dated 2020)
Read-outs that look alike come from different tables or passages of the source.

Tests used:
[1] = biological target: PD-L1 (Homo sapiens (Human), UniProt Q9NZQ7); experiment: PD-L1/PD-L1 dimerization biochemical protein-protein interaction assay (ALPHA); format: binding; conditions: read-out: AC50 PDL1 Dimer 1 nM
[2] = biological target: PD-1/PD-L1 (Homo sapiens (Human), UniProt Q9NZQ7); experiment: PD-1/PD-L1 biochemical protein-protein interaction assay (ALPHA); format: binding; conditions: read-out: IC50 PD-L1-PD1
PD-1/PD-L1, sequence (Q9NZQ7 19-238): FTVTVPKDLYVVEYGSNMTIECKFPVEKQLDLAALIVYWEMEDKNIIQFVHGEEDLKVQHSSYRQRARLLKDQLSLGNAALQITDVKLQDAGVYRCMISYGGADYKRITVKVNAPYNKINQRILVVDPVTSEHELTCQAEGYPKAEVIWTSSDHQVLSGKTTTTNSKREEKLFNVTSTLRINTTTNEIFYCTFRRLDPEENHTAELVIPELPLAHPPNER
Protocol: Compounds were tested in biochemical protein-protein interaction assays to determine if they can specifically block the interaction between the extracellular domains of PD-1/PD-L1 or CTLA/CD80. Binding of the protein pairs is measured using a bead based Amplified Luminescent Proximity Homogeneous Assay (ALPHA) platform. […] Final protein concentration in the assays were 0.3 nM (His tagged PD-L1), 2.5 nM (biotinylated Fc-PD-1), 1 nM (His tagged CTLA4) and 1 nM (biotinylated CD80).

[3] = 0.5 nM His tagged PD-L1 and 0.5 nM FLAG tagged PD-L1, Table 4B
[4] = 0.3 nM His tagged PD-L1, 2.5 nM biotinylated Fc-PD-1, Table 3B
[5] = 0.5 nM His tagged PD-L1 and 0.5 nM FLAG tagged PD-L1, Table 4A
[6] = 0.3 nM His tagged PD-L1, 2.5 nM biotinylated Fc-PD-1, readings of 0.064 nM are equal to or less than 0.064 nM

PD-L1, sequence (Q9NZQ7 19-238): as above
PD-L1, sequence (Q9NZQ7 19-238): as above

Row | Compound | AC50 [1, 3] | IC50 [2, 4] | AC50 [1, 5] | IC50 [2, 6]
1 | COc1nc(-c2cccc(-c3cccc4c3CC[C@@H]4Oc3nc(OC)c(CN4CC(C(=O)O)C5(CCC5)C4)cc3Cl)c2Cl)ccc1CNC[C@@H]1CCC(=O)N1 (some centres unmarked) [B-71] | 35.7 nM | 0.064 nM | – | –
2 | COc1nc(-c2cccc(-c3cccc4c3CC[C@@H]4Nc3nc(OC)c(CNC4(C(=O)O)CCC4)cc3C(F)(F)F)c2Cl)ccc1CNCC1CCC(=O)N1 (some centres unmarked) [A-22] | – | – | 8.17 nM | ≤ 0.064 nM
3 | COc1nc(-c2cccc(-c3cccc4c3CC[C@@H]4Oc3nc(OC)c(C(C)N4CC(C(=O)O)C4)cc3C(F)(F)F)c2Cl)ccc1CNC[C@@H]1CCC(=O)N1 (some centres unmarked) [B-119] | 24.5 nM | 0.064 nM | – | –
4 | COc1nc(-c2cccc(-c3cccc4c3CC[C@@H]4Oc3nc(OC)c(CN4C5CCC4(C(=O)O)CC5)cc3C(F)(F)F)c2Cl)ccc1CN1CC2(CCC(=O)N2)C1 [B-227] | 3.12 nM | 0.064 nM | – | –
5 | COc1nc(-c2cccc(-c3cccc4c3CC[C@@H]4Oc3nc(OC)c(CN4CCC[C@H]4C(=O)O)cc3C(F)(F)F)c2Cl)ccc1CNC[C@@H]1CCC(=O)N1 [B-5] | 2.67 nM | 0.064 nM | – | –
6 | COc1nc(-c2cccc(-c3cccc4c3CC[C@@H]4Oc3nc(OC)c(CN4C5CCC4(C(=O)O)CC5)cc3C(F)(F)F)c2Cl)ccc1CNC[C@@H]1CCC(=O)N1 [B-232] | 1.79 nM | 0.064 nM | – | –
7 | COc1nc(-c2cccc(-c3cccc4c3CC[C@@H]4Oc3nc(OC)c(CN4CC5CCCC4(C(=O)O)C5)cc3Cl)c2Cl)ccc1CNC[C@@H]1CCC(=O)N1 (some centres unmarked) [B-181] | 18.9 nM | 0.064 nM | – | –
8 | COC[C@H](NCc1cc(C(F)(F)F)c(N[C@H]2CCc3c(-c4cccc(-c5ccc(CN[C@H]6C[C@](C)(O)C6)c(OC)n5)c4Cl)cccc32)nc1OC)C(=O)O [A-91] | – | – | 42.7 nM | ≤ 0.064 nM
9 | COc1nc(N[C@H]2CCc3c(-c4cccc(-c5ccc(CNC[C@@H]6CCC(=O)N6)c(OCC#N)n5)c4Cl)cccc32)c(C(F)(F)F)cc1CN1CCC[C@@]1(C)C(=O)O [A-27] | – | – | 7.77 nM | ≤ 0.064 nM
10 | COc1nc(-c2cccc(-c3cccc4c3CC[C@@H]4Nc3nc(OC)c(CN4C5CCC4(C(=O)O)CC5)nc3C(F)(F)F)c2Cl)ccc1CNC[C@@H]1CCC(=O)N1 [A-69] | – | – | 5.27 nM | ≤ 0.064 nM
11 | COc1nc(-c2cccc(-c3cccc4c3CC[C@@H]4Oc3nc(OC)c(CN4CCCC(C(=O)O)CC4)cc3Cl)c2Cl)ccc1CNC[C@@H]1CCC(=O)N1 (some centres unmarked) [B-177] | 17.9 nM | 0.064 nM | – | –
12 | COc1nc(-c2cccc(-c3cccc4c3CC[C@@H]4Oc3nc(OC)c(CN4CC[C@@](C)(C(=O)O)C4)cc3C(F)(F)F)c2Cl)ccc1CNC[C@@H]1CC(O)C(=O)N1 (some centres unmarked) [B-202] | 3.43 nM | 0.064 nM | – | –
13 | COc1nc(-c2cccc(-c3cccc4c3CC[C@@H]4Oc3nc(OC)c(CN4CCC(C(=O)N=S(C)(N)=O)CC4)cc3Cl)c2Cl)ccc1CNC[C@@H]1CCC(=O)N1 (some centres unmarked) [B-158] | 26.9 nM | 0.064 nM | – | –
14 | COc1nc(-c2cccc(-c3cccc4c3CC[C@@H]4Nc3nc(OC)c(CNCC(=O)O)nc3C(F)(F)F)c2Cl)ccc1CN1CC(O)C1 [A-73] | – | – | 15.7 nM | ≤ 0.064 nM
15 | COc1nc(-c2cccc(-c3cccc4c3CC[C@@H]4Oc3nc(OC)c(CN4CCC[C@@H]4C(=O)O)cc3C(F)(F)F)c2Cl)ccc1CNC[C@@H]1CCC(=O)N1 [B-6] | 7.96 nM | 0.064 nM | – | –
16 | COc1nc(-c2cccc(-c3cccc4c3CC[C@@H]4Nc3nc(OC)c(CN4CC5(C(=O)O)CCC4CC5)cc3Cl)c2Cl)ccc1CNC[C@@H]1CCC(=O)N1 [A-5] | – | – | 113 nM | ≤ 0.064 nM
17 | COc1nc(-c2cccc(-c3cccc4c3CC[C@@H]4Nc3nc(OC)c(CN[C@@H](C)C(=O)O)nc3C(F)(F)F)c2Cl)ccc1CNC[C@H]1C[C@H](O)C1 [A-48] | – | – | 13.5 nM | ≤ 0.064 nM
18 | COc1cc(-c2cccc(-c3cccc4c3CC[C@@H]4Oc3nc(OC)c(CN4CC5(C(=O)O)CCC4CC5)cc3C(F)(F)F)c2Cl)cc(F)c1CNC[C@@H]1CCC(=O)N1 [B-194] | 4.54 nM | 0.064 nM | – | –
19 | COC(=O)C12CCC(CC1)N(Cc1nc(C(F)(F)F)c(N[C@H]3CCc4c(-c5cccc(-c6ccc(CNC[C@@H]7CCC(=O)N7)c(OC)n6)c5Cl)cccc43)nc1OC)C2 [A-82] | – | – | 84.9 nM | 0.14 nM
20 | COc1cc(-c2cccc(-c3cccc4c3CC[C@@H]4Nc3nc(OC)c(CNCC(=O)O)nc3C(F)(F)F)c2Cl)ccc1CNC1CC(O)(CF)C1 (some centres unmarked) [A-108] | – | – | 6.64 nM | ≤ 0.064 nM
21 | COc1nc(-c2cccc(-c3cccc4c3CC[C@@H]4Oc3nc(OC)c(CN4C[C@@H]5CC[C@]5(C(=O)O)C4)cc3Cl)c2Cl)ccc1CNC[C@@H]1CCC(=O)N1 [B-93] | 55 nM | 0.064 nM | – | –
22 | COc1nc(-c2cccc(-c3cccc4c3CC[C@@H]4Oc3nc(OC)c(CNCCC(=O)O)cc3Cl)c2Cl)ccc1CNC[C@@H]1CCC(=O)N1 [B-27] | 11.2 nM | 0.064 nM | – | –

Row | Compound | AC50 [1, 3] | IC50 [2, 4] | AC50 [1, 5] | IC50 [2, 6]
23 | COc1nc(-c2cccc(-c3cccc4c3CC[C@@H]4Oc3nc(OC)c(CN4CC5(CC5)C[C@H]4C(=O)O)cc3C(F)(F)F)c2Cl)ccc1CNC[C@@H]1CCC(=O)N1 [B-144] | 8.98 nM | 0.064 nM | – | –
24 | COc1nc(-c2cccc(-c3cccc4c3CC[C@@H]4Nc3nc(OC)c(CN[C@@H](C)C(=O)O)cc3C(F)(F)F)c2Cl)ccc1CNC[C@@H]1CCC(=O)N1 [A-64] | – | – | 8.04 nM | ≤ 0.064 nM
25 | COc1nc(-c2cccc(-c3cccc4c3CC[C@@H]4Oc3nc(OC)c(CN4CC5(C(=O)O)CCC4CC5)nc3Cl)c2Cl)cnc1CNC[C@@H]1CCC(=O)N1 [B-45] | 20.2 nM | 0.064 nM | – | –
26 | COc1nc(-c2cccc(-c3cccc4c3CC[C@@H]4Oc3nc(OC)c(CN[C@H](C)C(=O)O)cc3C)c2Cl)ccc1CNC[C@@H]1CCC(=O)N1 [B-242] | 18.9 nM | 0.064 nM | – | –
27 | COc1nc(-c2cccc(-c3cccc4c3CC[C@@H]4Nc3nc(OC)c(CN4CCC5CC4(C(=O)O)C5)cc3C(F)(F)F)c2Cl)ccc1CN1CC(C)(O)C1 [A-56] | – | – | 11.8 nM | ≤ 0.064 nM
28 | COc1nc(-c2cccc(-c3cccc4c3CC[C@@H]4Oc3nc(OC)c(CN4CC[C@@H](C(=O)N=S(C)(=O)NCC(F)(F)F)C4)cc3Cl)c2Cl)ccc1CNC[C@@H]1CCC(=O)N1 (some centres unmarked) [B-161] | 41.2 nM | 0.073 nM | – | –
29 | COc1nc(-c2cccc(-c3cccc4c3CC[C@@H]4Oc3nc(OC)c(CNCC(=O)O)cc3C)c2Cl)ccc1CNC[C@@H]1CCC(=O)N1 [B-239] | 21.3 nM | 0.064 nM | – | –
30 | COc1nc(-c2cccc(-c3cccc4c3CC[C@@H]4Oc3nc(OC)c(CN4CC5(C(=O)O)CCC4CC5)cc3Cl)c2Cl)ccc1CN[C@@H]1CCC[C@@H]1O [B-52] | 46.4 nM | 0.095 nM | – | –
31 | COc1nc(-c2cccc(-c3cccc4c3CC[C@@H]4Nc3nc(OC)c(CN4CC(C)(C(=O)O)C4)cc3C(F)(F)F)c2Cl)ccc1CNC[C@@H]1CCC(=O)N1 [A-53] | – | – | 16.2 nM | ≤ 0.064 nM
32 | COc1nc(-c2cccc(-c3cccc4c3CC[C@@H]4Oc3nc(OC)c(CNC4(C(=O)O)CCC4)cc3C(F)(F)F)c2Cl)ccc1CNC[C@@H]1CCC(=O)N1 [B-229] | 3.14 nM | 0.064 nM | – | –
33 | COc1nc(-c2cccc(-c3cccc4c3CC[C@@H]4Oc3nc(OC)c(CN4CC5(C(=O)O)CCC4CC5)cc3Cl)c2Cl)ccc1CNC1CC2CCC1N2C(C)=O (some centres unmarked) [B-23] | 62.8 nM | 0.064 nM | – | –
34 | COc1nc(O[C@H]2CCc3c(-c4cccc(-c5cc(C)c(CN6C[C@@H]7[C@H](C6)[C@H]7C(=O)O)c(OC)n5)c4Cl)cccc32)c(Cl)cc1CNC[C@@H]1CCC(=O)N1 [B-124] | 78.5 nM | 0.084 nM | – | –
35 | COc1nc(-c2cccc(-c3cccc4c3CC[C@@H]4Oc3nc(OC)c(CNC(C)(CO)C(=O)O)cc3C)c2Cl)ccc1CNC[C@@H]1CCC(=O)N1 (some centres unmarked) [B-240] | 12.1 nM | 0.064 nM | – | –
36 | COc1nc(-c2cccc(-c3cccc4c3CC[C@@H]4Oc3nc(OC)c(CN4CC[C@@H](C(=O)O)C4)cc3Cl)c2Cl)ccc1CN1CC(C)(O)C1 [B-85] | 50.3 nM | 0.064 nM | – | –
37 | COc1nc(-c2cccc(-c3cccc4c3CC[C@@H]4Nc3nc(OC)c(CN4CCC5CC4(C(=O)O)C5)cc3C(F)(F)F)c2Cl)ccc1CNC[C@@H]1CCC(=O)N1 [A-59] | – | – | 7.75 nM | ≤ 0.064 nM
38 | COc1nc(-c2cccc(-c3cccc4c3CC[C@@H]4Oc3cnc(CN4CC[C@@H](C(=O)O)C4)c(OC)n3)c2Cl)ccc1CNC[C@@H]1CCC(=O)N1 [B-156] | 324 nM | 0.076 nM | – | –
39 | COc1nc(-c2cccc(-c3cccc4c3CC[C@@H]4Oc3nc(OC)c(CN4CC5CCC4C(C(=O)O)C5)cc3Cl)c2Cl)ccc1CNC[C@@H]1CCC(=O)N1 (some centres unmarked) [B-98] | 54.3 nM | 0.111 nM | – | –
40 | COc1cc(-c2cccc(-c3cccc4c3CC[C@@H]4Oc3nc(OC)c(CN4CC[C@@H](C(=O)O)C4)cc3Cl)c2Cl)ccc1CNC[C@@H]1CCC(=O)N1 [B-41] | 3.59 nM | 0.064 nM | – | –
41 | COc1nc(-c2cccc(-c3cccc4c3CC[C@@H]4Nc3nc(OC)c(CNCCC(=O)O)cc3C(F)(F)F)c2Cl)ccc1CN[C@H]1C[C@](C)(O)C1 [A-89] | – | – | 81.8 nM | 0.072 nM
42 | COc1nc(-c2cccc(-c3cccc4c3CC[C@@H]4Oc3nc(OC)c(CN4CC(C(=O)O)C4)cc3C(F)(F)F)c2Cl)ccc1CNC[C@@H]1CCC(=O)N1 [B-63] | 7.82 nM | 0.064 nM | – | –
43 | COc1nc(-c2cccc(-c3cccc4c3CC[C@@H]4Nc3nc(OC)c(CN4CC[C@@](C)(C(=O)O)C4)nc3C(F)(F)F)c2Cl)ccc1CN1CC(C)(O)C1 [A-68] | – | – | 83.7 nM | ≤ 0.064 nM
